Experiment [1] concerns the target T1, human peptide transporter-1 (PEPT1) (Homo sapiens, UniProt P46059).
T1 sequence (P46059 1-708): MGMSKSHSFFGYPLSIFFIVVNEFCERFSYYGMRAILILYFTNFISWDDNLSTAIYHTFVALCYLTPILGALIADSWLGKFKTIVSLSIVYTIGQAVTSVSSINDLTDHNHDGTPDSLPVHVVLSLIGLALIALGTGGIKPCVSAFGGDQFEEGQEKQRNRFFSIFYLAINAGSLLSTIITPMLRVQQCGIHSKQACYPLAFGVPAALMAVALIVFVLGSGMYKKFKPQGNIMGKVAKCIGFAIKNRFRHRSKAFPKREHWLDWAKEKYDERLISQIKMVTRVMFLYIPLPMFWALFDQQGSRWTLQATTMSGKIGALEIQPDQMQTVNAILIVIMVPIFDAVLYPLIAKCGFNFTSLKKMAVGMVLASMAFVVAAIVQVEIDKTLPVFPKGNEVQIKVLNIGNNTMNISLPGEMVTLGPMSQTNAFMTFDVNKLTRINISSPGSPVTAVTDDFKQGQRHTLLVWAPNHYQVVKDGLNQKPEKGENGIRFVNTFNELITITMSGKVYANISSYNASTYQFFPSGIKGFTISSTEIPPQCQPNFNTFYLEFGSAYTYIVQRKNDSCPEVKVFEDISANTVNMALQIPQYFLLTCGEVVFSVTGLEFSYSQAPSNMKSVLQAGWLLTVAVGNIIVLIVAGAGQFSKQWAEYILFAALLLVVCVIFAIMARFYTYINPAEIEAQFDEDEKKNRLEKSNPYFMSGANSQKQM
In words: inhibition of radiolabeled Gly-Sar uptake in transfected CHO cells. Type of experiment: cell-based.

Another experiment addresses T2, PEPT2 (Homo sapiens, UniProt Q16348).
T2 sequence (Q16348 1-729): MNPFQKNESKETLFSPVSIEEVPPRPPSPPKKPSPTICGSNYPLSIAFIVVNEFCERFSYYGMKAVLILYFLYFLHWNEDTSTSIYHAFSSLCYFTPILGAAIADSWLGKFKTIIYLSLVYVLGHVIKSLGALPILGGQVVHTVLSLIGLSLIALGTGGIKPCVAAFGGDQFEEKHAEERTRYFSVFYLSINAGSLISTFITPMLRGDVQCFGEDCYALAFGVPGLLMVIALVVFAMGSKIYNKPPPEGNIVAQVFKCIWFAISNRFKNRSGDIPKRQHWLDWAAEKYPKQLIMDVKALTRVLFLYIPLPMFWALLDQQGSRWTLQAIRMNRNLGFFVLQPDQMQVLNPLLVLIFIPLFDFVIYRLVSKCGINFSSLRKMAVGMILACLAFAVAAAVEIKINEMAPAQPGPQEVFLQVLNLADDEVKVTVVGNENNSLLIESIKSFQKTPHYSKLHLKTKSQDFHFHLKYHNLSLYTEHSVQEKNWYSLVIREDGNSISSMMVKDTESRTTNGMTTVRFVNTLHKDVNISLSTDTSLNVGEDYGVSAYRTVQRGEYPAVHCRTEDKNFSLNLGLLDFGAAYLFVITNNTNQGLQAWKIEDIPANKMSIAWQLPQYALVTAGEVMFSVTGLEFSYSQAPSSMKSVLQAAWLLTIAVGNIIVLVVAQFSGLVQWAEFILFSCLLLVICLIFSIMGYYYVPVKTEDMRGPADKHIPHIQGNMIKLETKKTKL
The experiment is described as above. It is filed as cell-based.

Broadly, the IC50 is the concentration that inhibits the measured activity by half. A low value points to greater potency in that assay.

Consider `C[C@@H](Cc1ccccc1)NC(=O)[C@@H](N)CCCCN` [lisdexamfetamine dimesylate], for which the IC50 in experiment [1] is about 4000 µM; against PEPT2, 246 µM.

Source of the values: article PMC2898170 (Neuropsychiatric Disease and Treatment, 2010).
